Assay results: US20250127748A1, “METHODS FOR THE TREATMENT OF MIGRAINE AND RELATED HEADACHE SYMPTOMS USING TRICAPRYLIN” (priority 2021, published 2025)

Tests used:
CH attacks = conditions: Di Lorenzo et al 2018; cited from earlier work
[1] = system: trigeminal autonomic cephalgia (left hemi-cephalgia), person; assay: case report: trigeminal autonomic cephalgia responsive to tricaprylin; type: in vivo, human
Source text: A person presented with a history of waxing and waning left hemi-cephalgia over the course of 10 years. Their past medical history included bilateral loss of hearing (right worse than left) and past episodes of dizziness leading to a diagnosis of possible Menieres disease. They had hyperlipedemia controlled with a statin. They had some excess weight (BMI 30.8), was a vegetarian and was physically active.
The cephalgia was described as a dull achy non-throbbing pain that when present is continuous over the left side of the face and across the left scalp. The pain appeared to be centered around the eye and was described as if […] were being poked in the eye. The pain also involved the left cheek and left scalp. They could not identify any specific trigger to the pain but did note that it was accompanied by tenderness to touch of the scalp on the left side of the head, including sensitivity to hair brushing. When the pain was present they would be aware of it upon awakening in the morning and it would persist throughout the day.
They had no other headache types, and had not experienced episodes of nasal stuffiness, or pupillary changes. They noted occasional excess lacrimation of the left eye. At one point they were investigated for potential ‘sinus problems’ and no sinus condition was diagnosed. […] […] self-medicated with occasional paracetamol which provided modest relief.
The subject began a daily treatment regimen with Axona®, a medical food containing the active ingredient tricaprylin.
At the time of presentation the headache had recurred to an intensity of 4-6/10 and they were restarted on a course of Axona®, starting with 5 g tricaprylin per day, increasing over 2 weeks to 20 g a day.

[2] = in-vitro digestion assays of emulsion; type: in vitro ADME; conditions: intestinal and/or colon pH vs stomach pH
Source text: In certain embodiments, the emulsion formed may be stable at stomach pH, e.g., at a pH of about 1 to about 3, about 1.2 to 2.9, etc. In certain embodiments, the emulsion formed may be stable at intestinal and/or colon pH, e.g., at a pH of about 5 to about 7, about 5.5 to about 6.9, etc. […] In accordance with certain aspects of the disclosure, preferential release of tricaprylin in the intestines and/or colon rather than the stomach may increase bioavailability of the tricaprylin given the location of lipid digestion enzymes in these areas.

[3] = system: participants with frequent migraine; assay: randomised, double-blind, placebo-controlled study of tricaprylin as AC-SD-03 for the reduction of migraine; type: in vivo, human
Source text: This is a randomised, double-blind, placebo-controlled, parallel-group, multi-centre study of tricaprylin as AC-SD-03 compared with placebo for the reduction of migraine in participants with frequent migraine.
Following a screening period of up to 2 weeks, the study duration is 17 weeks including a 4-week baseline measurement period, after which randomisation occurs, a 12-week treatment period and a 1-week safety follow-up period.
The study will be completed in two parts. In Part 1, 54 participants will be randomised to receive tricaprylin as AC-SD-03, or placebo, in a 1:1 ratio. Once 54 participants are randomised, enrolment will be paused until the randomised participants have completed the study. Based on an unblinded analysis of the data from all evaluable patients from Part 1, a decision to proceed to Part 2 (enrolment of additional participants) will be taken. The decision to continue to Part 2 will be made by the Sponsor, based on a number of factors including the one-sided p-value for the analysis of the primary endpoint, ΔMDMth3, the safety and tolerability profile observed during Part 1, the observed between-subject variability, as well as trial conduct feasibility. The size of Part 2 will be determined by the between-subject variability observed in Part 1, and will be between 80 and 180 participants.
Investigational Medicinal Products: The formulation AC-SD-03 contains the active compound tricaprylin and excipients, 1:1.5. Thus 75 g AC-SD-03 contains 30 g tricaprylin and 45 g excipients (carrier, emulsifiers and flavouring). The placebo formulation, AC-SD-03P, contains 30 g safflower oil in place of the active compound tricaprylin and identical excipients to the active formulation.
Treatment Groups and Duration: At the Baseline Visit, all participants will receive a sentinel dose of 12.5 g AC-SD-03 (containing 5 g tricaprylin). […] Those that do tolerate the sentinel dose and meet other eligibility criteria, will enter the baseline measurement period of 4 weeks to determine migraine day participant eligibility for the study and to establish baseline data for comparison of endpoints during the study.
After the 4 weeks baseline measurement period, those who record 4-24 migraine days per month will be randomised to AC-SD-03 or placebo (AC-SD-03P) and will titrate from 12.5 g twice a day to 75 g twice a day, over the course of 2 weeks. Participants who have fewer than four or greater than 24 headache days per month in the baseline period will be discontinued from the study. The participant should not be told the number of migraine headache days on which eligibility is based to avoid biased reporting.
Once titration has completed, all participants will continue on the target dose they are on over an additional 10-week maintenance period.
The primary endpoint will be change from baseline in the number of migraine headache days during Month 3 (ΔMDMth3).
The secondary endpoints are: • Change from baseline in the number of migraine headache days during Month 1 (ΔMDMth1) and Month 2 (ΔMDMth2) of treatment and overall, from Months 1-3; • Change from baseline in duration of migraine of moderate to severe intensity during treatment months 1, 2 and 3; • Change from baseline in duration of migraine during treatment months 1, 2 and 3; • The proportion of participants with a 50% reduction from baseline in number of migraine headache days in treatment months 1, 2, and 3; • Change from baseline in monthly acute migraine medicine use during treatment months 1, 2 and 3; • Time to first usage of acute migraine medication; • Change from baseline Headache Impact Test (HIT-6) score at the end of Months 1, 2 and 3; • Incidence of adverse events; • Clinical safety laboratory tests; • Vital signs, ECGs, C-SSRS; […]

## O=C(O)CCCO [GHB]
CH attacks
  prevention of CH attacks: has been shown to prevent CH attacks

## CN(C)CCC=C1c2ccccc2CCc2ccccc21 [amitriptyline]
[1]; 10 mg, earlier treatment of the same patient
  effect on degree of discomfort: reduced the degree of discomfort partially
[1]; 10 mg, earlier treatment of the same patient, discontinued
  adverse effect: fatigue

## CC(=O)Nc1ccc(O)cc1 [paracetamol]
[1]; occasional self-medication
  relief of cephalgia: modest relief

## CCCCCCCC(=O)OCC(COC(=O)CCCCCCC)OC(=O)CCCCCCC [tricaprylin]
[2]
  release of encapsulated tricaprylin from emulsion: released from emulsion at intestinal and/or colon pH
[3]; 12-week treatment, 40 treated
  Discontinued treatment prior to completion, number of subjects: 18
  Discontinued treatment prior to completion, percent of subjects: (45.0%)
  Primary reason for discontinuation: Adverse Event, number of subjects: 12
  Primary reason for discontinuation: Adverse Event, percent of subjects: (30.0%)
[3]; Month 2, vs placebo, one-sided p=0.066 vs target of p<0.2
  Change from baseline in migraine headache days, Month 2: clinically-relevant benefit
[3]; Month 3, EEITS, vs placebo, p=0.269 vs target of p<0.2
  Change from baseline in migraine headache days, Month 3 (primary endpoint): positive, clinically-relevant trend
